# Earlier results as cited in patent publication US12575570B2, “Aqueous composition of Epyrifenacil, Mesotrione and Pyroxasulfone” (Valent U.S.A. LLC, priority 2020, dated 2026).
structure (smiles),measurement,value
"CS(=O)(=O)c1ccc(C(=O)C2C(=O)CCCC2=O)c([N+](=O)[O-])c1 [mesotrione, 2-(4-mesyl-2-nitrobenzoyl)cyclohexane-1,3-dione]",water solubility,160 ppm
